Laboratory results as given in US20170071976A1, “PHARMACEUTICAL SOLUTION HAVING ANTI-TUMOR EFFECT-ENHANCING AND TOXICITY-REDUCING EFFECT, AND PHARMACEUTICAL COMPOSITION COMPRISING SAME” (priority 2014, published 2017).
Read-outs that look alike come from different tables or passages of the source. Marks after values point to notes of the source that are not given here. Blank lines part the entries; values can stand above or below the molecule they belong to.

Key:
[1] = system: xenograft tumors from human colon cancer HCT-116 cells; test: HCT-116 xenograft in nude mice, intravenous deuterium oxide in combination with 5-fluorouracil; type: in vivo, BALB/c nude mice
Method: Ltd. Cell lines: human colon cancer cells HCT-116 were provided by NANJING […] BIOTECH. CO., LTD. […] Bone marrow nucleated cells were isolated by a routine method, DNA was extracted from the cells, the OD value was measured in a UV-260 spectrometer as a representative of the DNA content, and inhibition of DNA synthesis by the test samples was observed. The test used 7 groups in total, with 8 animals per group. […] Tumor volume (TV) was calculated by the following equation: […] From the measurements, relative tumor volume (RTV) was calculated by the following equation: RTV=Vt/V0 Relative tumor growth ratio T/C (%) was calculated by the following equation: Criteria of efficacy evaluation: […] T/C %≦40% and statistically P<0.05, efficacious. Inhibition of tumor growth (%) was calculated by the following equation: Criteria of efficacy evaluation: […] The mean value was expressed in X±SD. Inter-group analysis was statistically performed with t test. The results were statistically analyzed using SPSS (Statistical Package for the Social Science) 17.0.

[2] = system: xenograft tumors from human lung cancer A549 cells; test: A549 xenograft in nude mice, intravenous deuterium oxide in combination with gemcitabine; settings: Paclitaxel 8 mg/kg × 11, tail vein; for Tumor weight: control 2.92 ± 0.27; for Inhibition (%): tumor weight
Method: (§1) Animal: 6 to 7 week-aged female BALB/c nude mice, each weighing 18 to 20 g, provided by Shanghai SLAC Laboratory Animal Co. Ltd.
Test drugs: gemcitabine (GEM) and the sodium chloride deuterium oxide solution prepared in Example 1.
(§2) Tumor cells were resuscitated and inoculated, and sterile sodium chloride physiological solution was added thereto to make a cell suspension which was subcutaneously inoculated into the upper right axillary fossa of animals. 5×10^6 tumor cells were inoculated into each animal.
The diameter of xenograft tumors in the nude mice was measured with a vernier caliper, and 10 days after inoculation, when tumors grew to 100 to 110 cm^3, the animals were randomized with 8 mice per group. Meanwhile drugs were administered by injection into tail vein, once every three days, for 21 successive days. By measuring the tumor diameter, the anti-tumor efficacy of test samples was dynamically observed. Meanwhile the body weight of animals was also recorded to observe the toxicity of the test samples. 21 days after administration, the nude mice were sacrificed, and tumors were harvested by surgery, weighed and photographed.
6) Test group 2: gemcitabine (10 mg/kg) diluted in the sodium chloride deuterium oxide solution (10 ml/kg). 7) Test group 3: gemcitabine (10 ml/kg) diluted in the sodium chloride deuterium oxide solution (20 ml/kg).

[3] = system: xenograft tumors from human breast cancer MCF-7 cells; test: MCF-7 xenograft in nude mice, intravenous deuterium oxide in combination with gemcitabine; type: in vivo, BALB/c nude mice; settings: Paclitaxel 8 mg/kg × 11, tail vein
Method: Ltd. Cell lines: human breast cancer MCF-7 cells were provided by NANJING […] BIOTECH. CO., LTD. […] Bone marrow nucleated cells were isolated by a routine method, DNA was extracted from the cells, the OD value was measured in a UV-260 spectrometer as a representative of the DNA content, and inhibition of DNA synthesis by the test samples was observed. The test used 7 groups in total, with 8 animals per group. […] Statistics: the same as Example 21.

[4] = system: xenograft tumors from human ovarian cancer SKOV3 cells; test: SKOV3 xenograft in nude mice, intravenous deuterium oxide in combination with paclitaxel; type: in vivo, BALB/c nude mice; settings: Paclitaxel 8 mg/kg × 11, tail vein
Description: 3. […] 4. Statistics: the same as Example 21.

[5] = system: xenograft tumors from human bladder cancer 5637 cells; settings: Thiotepa 0.2 mg/kg × 11, tail vein; for Inhibition (%): tumor weight
Description: Inhibition of growth of xenograft tumors from human bladder cancer 5637 cells in nude mice by intravenous injection of deuterium oxide in combination with thiotepa
as §1
Cell lines: human bladder cancer 5637 cells were provided by NANJING KEYGEN BIOTECH. CO., LTD.
Test drugs: thiotepa and the sodium chloride deuterium oxide solution, prepared in Example 1.
as §2
The diameter of xenograft tumors in the nude mice was measured with a vernier caliper, and 10 days after inoculation, when tumors grew to 100 to 110 cm^3, the animals were randomized. Meanwhile drugs were administered by injection into tail vein, once every three days, for 21 successive days. The body weight of animals was also recorded to observe the toxicity of the test samples. 21 days after administration, the nude mice were sacrificed, and tumors were harvested by surgery, and weighed.
The test used 5 groups in total, with 5 animals per group.
1) Control group: sodium chloride physiological solution, 10 ml/kg; 2) Thiotepa positive control group: thiotepa (0.2 mg/kg) diluted in sodium chloride physiological solution; 3) Test group 1: thiotepa (0.2 mg/kg) diluted in the sodium chloride deuterium oxide solution (1 ml/kg); 4) Test group 2: thiotepa (0.2 mg/kg) diluted in the sodium chloride deuterium oxide solution (10 ml/kg); 5) Test group 3: thiotepa (0.2 mg/kg) diluted in the sodium chloride deuterium oxide solution (25 ml/kg).

[6] = system: sarcoma S180 (ascites type); test: Sarcoma S180 (ascites type) mice, 42±1° C. intraperitoneal retention lavage with deuterium oxide, oxaliplatin and mitomycin; type: in vivo, Kunming mice; settings: oxaliplatin 0.8 mg/kg + glucose injection 5 ml/kg
Method: Inhibition of sarcoma S180 (ascites type) in tumor-bearing mice by 42±1° C. hyperthermic intraperitoneal retention lavage using deuterium oxide in combination with oxaliplatin and using deuterium oxide in combination with oxaliplatin and mitomycin.
Cell lines: sarcoma S180 (ascites type) cell line was provided by NANJING KEYGEN BIOTECH. CO., LTD.
Modeling: 0.2 ml suspension of sarcoma S180 cells containing 1×10^7 cells/ml was inoculated into the peritoneal cavity of mice.
Test drugs: oxaliplatin, mitomycin, and the glucose deuterium oxide solution as prepared in Example 2.
Grouping and dosing: the mouse model was established 7 to 8 days after inoculation, and the mice were randomized with 12 animals/group.
Oxaliplatin and mitomycin were dissolved in a 42±1° C. glucose deuterium oxide solution, and used to lavage the peritoneal cavity of the tumor-bearing mice.
Blank control group (5% glucose injection, 5 ml/kg); 2). Chemo group (oxaliplatin 0.8 mg/kg+5% glucose injection, 5 ml/kg); 3). Low-dose deuterium oxide+oxaliplatin group (5% glucose deuterium oxide solution, 5 ml/kg+oxaliplatin 0.8 mg/kg); 4). Mid-dose deuterium oxide+oxaliplatin group (5% glucose deuterium oxide solution, 20 ml/kg+oxaliplatin 0.8 mg/kg); 5). High-dose deuterium oxide+oxaliplatin group (5% glucose deuterium oxide solution, 40 ml/kg+oxaliplatin 0.8 mg/kg); 6). Low-dose deuterium oxide+oxaliplatin+mitomycin group (42±1° C. 5% glucose deuterium oxide solution, 5 ml/kg+oxaliplatin 0.8 mg/kg+mitomycin 0.4 mg/kg); 7). […]
The peritoneal cavity was lavaged with the 42±1° C. glucose deuterium oxide solution in combination with the above composition, which were retained for 10 min in the peritoneal cavity after being introduced, which was repeated for 3 times. […] 24 hours after the administration of drugs was completed (on day 11), 4 mice from each group were sacrificed, the volume of ascitic fluid was measured, and bodies of the mice were dissected to observe the peritoneal organs and metastasis to lung. […]

[7] = system: liver cancer H22 ascites tumor; test: Liver cancer H22 ascites tumor mice, intraperitoneal retention lavage with deuterium oxide and cisplatin (room temperature or 42±1° C.); type: in vivo, Kunming mice; settings: cisplatin 0.6 mg/kg + Ringer's solution
Method: Animal: 4 to 5 week-aged male Kunming mice, provided by Shanghai SIPPR-BK Laboratory Animal Co. Ltd. Cell lines: […] CO., LTD. […] Test drugs: cisplatin, and the Ringer's deuterium oxide solution as prepared in Example 6. Grouping and dosing: the mouse model was established 7 to 8 days after inoculation, and the mice were randomized with 18 animals/group. Cisplatin were dissolved in a 42±1° C. Ringer's deuterium oxide solution, and used to lavage the peritoneal cavity of the tumor-bearing mice. 1). Blank control group (normal Ringer's solution, 10 ml/kg, room temperature); 2). Normal chemo group (cisplatin 0.6 mg/kg+normal Ringer's solution, 10 ml/kg, room temperature); 3). […] Room temperature high-dose deuterium oxide+cisplatin group (Ringer's deuterium oxide solution, 40 ml/kg+cisplatin 0.6 mg/kg); 6). Hyperthermic low-dose deuterium oxide+cisplatin group (42±1° C. […] Hyperthermic mid-dose deuterium oxide+cisplatin group (42±1° C. […] Hyperthermic high-dose deuterium oxide+cisplatin group (42±1° C. Ringer's deuterium oxide solution, 40 ml/kg+cisplatin 0.6 mg/kg); […] The lavage was performed once another day for 5 successive times. […] 4. […] Statistics: the same as Example 18.

Bone marrow DNA content (OD) ([1]; Paclitaxel 8 mg/kg × 11, tail vein, control 0.950 ± 0.2711): 0.841 ± 0.3014 OD
Bone marrow DNA content (OD) ([3]; control 0.931 ± 0.2011): 0.881 ± 0.2502 OD
Compound: CC(=O)O[C@H]1C(=O)[C@@]2(C)[C@H]([C@H](OC(=O)c3ccccc3)[C@]3(O)C[C@H](OC(=O)[C@H](O)[C@@H](NC(=O)c4ccccc4)c4ccccc4)C(C)=C1C3(C)C)[C@]1(OC(C)=O)CO[C@@H]1C[C@@H]2O [Paclitaxel, paclitaxel]
Body weight (g) Initial ([1]; Paclitaxel 8 mg/kg × 11, tail vein): 18.4 g
Tumor weight ([1]; Paclitaxel 8 mg/kg × 11, tail vein, control 2.92 ± 0.27): 0.94 ± 0.25 g
Body weight (g) End, given as change ([1]; Paclitaxel 8 mg/kg × 11, tail vein, control +0.4): -1.2 g
Body weight (g) Initial ([1]; Paclitaxel 8 mg/kg × 11, tail vein, listed as paclitaxel): 18.4 ± 0.5 g
body weight at end ([1]; high-dose paclitaxel positive control): 16.8 ± 0.9 g
Inhibition (%) ([1]; tumor weight, Paclitaxel 8 mg/kg × 11, tail vein): 67.80%*
Body weight (g) Initial [2]: 18.4 g
Tumor weight [2]: 0.94 ± 0.25 g
Tumor weight ([2]; listed as paclitaxel): 0.94 ± 0.25 g
Body weight (g) End, given as change ([2]; control +1.4): +0.9 g
Inhibition (%) [2]: 67.97* %
Inhibition (%) ([2]; listed as paclitaxel): 67.97%
Body weight (g) Initial [3]: 18.3 g
Tumor weight ([3]; control 4.07 ± 0.76): 1.59 ± 0.40 g
Body weight (g) End, given as change ([3]; control +3.3): +1.0 g
Inhibition (%) ([3]; tumor weight): 60.93%*
Tumor weight ([4]; control 3.22 ± 1.59): 2.07 ± 1.06 g
Body weight (g) End, given as change ([4]; control +4.0): +2.8 g
Inhibition (%) ([4]; tumor weight): 35.7%

Compound: S=P(N1CC1)(N1CC1)N1CC1 [Thiotepa, thiotepa]
Body weight (g) Initial [5]: 20.6 g
Tumor weight ([5]; control 2.87 ± 1.11): 1.75 ± 1.06 g
Body weight (g) End, given as change ([5]; control +3.1): +2.6 g
Inhibition (%) [5]: 39.0%
Inhibition (%) ([5]; listed as thiotepa): 39%

Compound: O=C1[O][Pt]2([NH][C@@H]3CCCC[C@H]3[NH]2)[O]C1=O [oxaliplatin]
Ascitic fluid ([6]; day 11, control 16.5 ± 4.3): 8.7 ± 1.9 mL
T/C(%) ([6]; i.p. lavage x 5): 177.6%
MST ([6]; i.p. lavage x 5, control 12.2 ± 3.0): 21.7 ± 2.8 days

Compound: N.N.[Cl][Pt][Cl] [cisplatin]
T/C(%) ([7]; room temperature, i.p. lavage x 5): 137.1%
MST ([7]; room temperature, i.p. lavage x 5, control 13.2 ± 1.9): 18.1 ± 3.2 days
Ascitic fluid ([7]; day 11, RT, control 14.85 ± 2.56): 7.30 ± 2.32 mL
